{"source": "patent US20190262321A1", "about": "“METHODS OF TREATING DIABETIC NEPHROPATHY USING HPTPB INHIBITORS” (Aerpio Therapeutics, Inc., priority 2018, published 2019)", "key": {"[1]": {"system": "human subjects", "experiment": "Assessment of renal function indices (UACR) in subjects treated with compound AA34", "format": "in vivo", "conditions": "for % Change in Geometric Mean (UACR): baseline to end of treatment (three months), patients with albuminuria at baseline", "method": "The human subjects treated with compound AA34 were administered 15 mg of the compound subcutaneously twice a day for three months. One group of subjects received the compound and ranibizumab (RBZ; 0.3 mg monthly via intraocular injection), while the other group received only the compound with a sham intraocular injection. The subjects in the placebo arm received a placebo subcutaneously twice a day along with ranibizumab. […] Within the subjects that had albuminuria, 30% had microalbuminuria (>30 mg/g and <300 mg/g UACR) and 20% had macroalbuminuria (>300 mg/g UACR).\nThe results of the study are shown in FIG. 2 and TABLE 2 as the % change from baseline to end of treatment (three months) in geometric mean +95% confidence interval in the patients with albuminuria at baseline."}, "[2]": {"system": "Male C57BL6 mice", "experiment": "Endotoxin (LPS)-induced acute kidney injury: serum BUN and kidney histology", "format": "in vivo", "method": "(§1) Male C57BL6 mice, 9-10 weeks old, were injected i.p. with 0.2 mg E. coli LPS per 25 g body weight. The mice were injected with compound AA34 (50 mg/kg, 50 μL) or the vehicle (50 μL) at the time of lipopolysaccharide (LPS) injection, 8 after LPS injection, and 16 hours after LPS injection. The mice were sacrificed 24 h after the LPS injection. The saline-injected mice were studied in parallel as controls. Serum samples from the mice were analyzed for BUN as a marker of kidney function."}, "[3]": {"system": "Tie2", "experiment": "Immunoprecipitation of kidney homogenate for Tie2 phosphorylation after LPS", "format": "in vivo, mice", "method": "Male C57BL6 mice, 9-10 weeks old, were injected i.p. with 0.2 mg E. coli LPS per 25 g body weight. The mice were injected with compound AA34 (50 mg/kg, 50 μL) or the vehicle (50 μL) at the time of lipopolysaccharide (LPS) injection, 8 after LPS injection, and 16 hours after LPS injection. The mice were sacrificed 24 h after the LPS injection. The saline-injected mice were studied in parallel as controls. Immunoprecipitation of kidney homogenate was performed to analyze the extent of Tie2 phosphorylation in the drug versus vehicle groups. Immunoprecipitation of kidney homogenate was completed using anti-Tie2 Ab, which was probed using anti-phosphotyrosine Ab. Total Tie2 levels were equal in the drug-treated and vehicle-treated groups after being injected with LPS."}, "[4]": {"system": "Male C57BL6 mice", "experiment": "Renal apoptosis after LPS (DNA laddering, TUNEL staining)", "format": "in vivo", "conditions": "versus vehicle", "method": "as §1, with “Apoptosis was detected in kidney homogenate using DNA laddering, which is” for “Serum samples from”, “result” for “mice were analyzed for BUN as a marker”, “apoptotic DNA fragmentation. […] Terminal deoxynucleotidyl transferase dUTP nick end labeling (TUNEL) staining was used to visualize the presence of apoptotic nuclei.” for “kidney function.”"}, "[5]": {"system": "Male C57BL6 mice", "experiment": "LPS-induced renal neutrophil infiltration", "format": "in vivo", "conditions": "24 h after LPS injection", "method": "(§2) Male C57BL6 mice, 9-10 weeks old, were injected i.p. with 0.2 mg E. coli LPS per 25 g body weight. The mice were injected with compound AA34 (50 mg/kg, 50 μL) or the vehicle (50 μL) at the time of lipopolysaccharide (LPS) injection, 8 after LPS injection, and 16 hours after LPS injection. The mice were sacrificed 24 h after the LPS injection. The saline-injected mice were studied in parallel as controls."}, "[6]": {"system": "TNFR1", "experiment": "RT-PCR of kidney homogenate after LPS: TNFR1", "format": "in vivo, mice", "conditions": "versus vehicle", "method": "as §2, with “controls. Phosphatase inhibition by compound AA34 reduced renal mRNA expression of various mediators of inflammation and coagulation, as shown in FIG. 8. The kidneys of the mice were analyzed for RNA level expression of various inflammatory mediators. […] TNFR1, PAI-1, and tissue factor were expressed mainly in the endothelium, the site of Tie2 expression.” for “controls.”"}, "[7]": {"system": "plasminogen activator inhibitor-1 (PAI-1)", "experiment": "RT-PCR of kidney homogenate after LPS: PAI-1", "format": "in vivo, mice", "conditions": "versus vehicle", "method": "as §2, with “controls. Phosphatase inhibition by compound AA34 reduced renal mRNA expression of various mediators of inflammation and coagulation, as shown in FIG. 8. The kidneys of the mice were analyzed for RNA level expression of various inflammatory mediators. […] TNFR1, PAI-1, and tissue factor were expressed mainly in the endothelium, the site of Tie2 expression.” for “controls.”"}, "[8]": {"system": "tissue factor", "experiment": "RT-PCR of kidney homogenate after LPS: tissue factor", "format": "in vivo, mice", "conditions": "versus vehicle", "method": "as §2, with “controls. Phosphatase inhibition by compound AA34 reduced renal mRNA expression of various mediators of inflammation and coagulation, as shown in FIG. 8. The kidneys of the mice were analyzed for RNA level expression of various inflammatory mediators. […] TNFR1, PAI-1, and tissue factor were expressed mainly in the endothelium, the site of Tie2 expression.” for “controls.”"}, "[9]": {"system": "inducible nitric oxide synthase (iNOS)", "experiment": "RT-PCR of kidney homogenate after LPS: iNOS", "format": "in vivo, mice", "conditions": "versus vehicle", "method": "as §2, with “controls. Phosphatase inhibition by compound AA34 reduced renal mRNA expression of various mediators of inflammation and coagulation, as shown in FIG. 8. The kidneys of the mice were analyzed for RNA level expression of various inflammatory mediators. […] TNFR1, PAI-1, and tissue factor were expressed mainly in the endothelium, the site of Tie2 expression.” for “controls.”"}, "[10]": {"system": "Male C57BL6 mice", "experiment": "Renal vascular leak after LPS (fluorescent dextrans, tomato lectin)", "format": "in vivo", "conditions": "24 h after LPS", "method": "as §2, with “controls. Mice were injected with LPS and drug (compound AA34) versus the vehicle (LPS only). 2 min prior to sacrificing the animals at 24 h, the mice were injected with 70 kDa and 500 kDa fluorescent fixable dextrans by intravenous catheter.” for “controls.”"}, "[11]": {"conditions": "Baseline UACR 30-300 mg/g (n 31)"}}, "data": [{"smiles": "COC(=O)N[C@@H](Cc1ccccc1)C(=O)N[C@@H](Cc1ccc(NS(=O)(=O)O)cc1)c1csc(-c2cccs2)n1", "note": "[AA34]", "values": [{"measurement": "shift analysis: subjects with UACR 30-300 at Month 3/EOT", "setting": "[1]; [11]", "result": "25 (81%)"}, {"measurement": "shift analysis: subjects with UACR <30 at Month 3/EOT", "setting": "[1]; [11]", "result": "4 (13%)"}, {"measurement": "shift analysis: subjects with UACR >300 at Month 3/EOT", "setting": "[1]; [11]", "result": "2 (6%)"}, {"measurement": "shift analysis: subjects with UACR 30-300 at Month 3/EOT", "setting": "[1]; Baseline UACR <30 mg/g (n 43)", "result": "2 (5%)"}, {"measurement": "shift analysis: subjects with UACR <30 at Month 3/EOT", "setting": "[1]; Baseline UACR <30 mg/g (n 43)", "result": "41 (95%)"}, {"measurement": "shift analysis: subjects with UACR >300 at Month 3/EOT", "setting": "[1]; Baseline UACR <30 mg/g (n 43)", "result": 0}, {"measurement": "shift analysis: subjects with UACR 30-300 at Month 3/EOT", "setting": "[1]; Baseline UACR >300 mg/g (n 18)", "result": "1 (6%)"}, {"measurement": "shift analysis: subjects with UACR <30 at Month 3/EOT", "setting": "[1]; Baseline UACR >300 mg/g (n 18)", "result": "1 (6%)"}, {"measurement": "shift analysis: subjects with UACR >300 at Month 3/EOT", "setting": "[1]; Baseline UACR >300 mg/g (n 18)", "result": "16 (89%)"}, {"measurement": "% Change in Geometric Mean (UACR)", "setting": "[1]; 15 mg subcutaneously twice a day", "result": "−17.7", "unit": "%"}, {"measurement": "% Change in Geometric Mean (UACR)", "setting": "[1]; 15 mg subcutaneously twice a day, listed as All Compound", "result": "−21.2", "unit": "%"}, {"measurement": "reduction in the UACR compared to patients receiving placebo", "setting": "[1]; three months, 15 mg subcutaneously twice a day", "result": "~20", "unit": "%"}, {"measurement": "morphologic tubular injury (histology)", "setting": "[2]; 24 h after LPS injection, drug versus vehicle", "result": "less morphologic tubular injury"}, {"measurement": "LPS-induced rise in BUN", "setting": "[2]; serum, 24 h after LPS, 50 mg/kg at 0, 8 and 16 hours, versus vehicle, p=0.002", "result": "statistically reduced"}, {"measurement": "tyrosine phosphorylated Tie2 in kidney homogenate", "setting": "[3]; LPS+Compound AA34 versus LPS+vehicle, 8 h after the last dose", "result": "increased levels"}, {"measurement": "Total Tie2 levels in kidney homogenate", "setting": "[3]; drug-treated versus vehicle-treated groups after LPS", "result": "equal"}, {"measurement": "DNA laddering (apoptosis) in kidney homogenate", "setting": "[4]", "result": "less DNA laddering"}, {"measurement": "apoptosis (TUNEL staining of apoptotic nuclei)", "setting": "[4]", "result": "less apoptosis"}, {"measurement": "reduction of renal neutrophil infiltration", "setting": "[5]", "result": "over 50%"}, {"measurement": "reduction of renal mRNA expression of TNFR1", "setting": "[6]", "result": "about 6 fold"}, {"measurement": "reduction of renal mRNA expression of PAI-1", "setting": "[7]", "result": "about 5 fold"}, {"measurement": "reduction of renal mRNA expression of tissue factor", "setting": "[8]", "result": "about 0.8 fold"}, {"measurement": "reduction of renal mRNA expression of iNOS", "setting": "[9]", "result": "about 1.5 fold"}, {"measurement": "LPS-induced extrusion of dye beyond the small peritubular capillaries (vascular leak)", "setting": "[10]; 70 kDa and 500 kDa fluorescent fixable dextrans", "result": "markedly reduced"}, {"measurement": "tomato lectin staining of peritubular capillaries (vascular integrity)", "setting": "[10]", "result": "relatively preserved"}]}]}
